As usually defined, the inhibition is the share of the control response that was lost under treatment. Usually Papp A→B stands for the apparent permeability from the apical to the basolateral side of a cell layer.

Bounds are passed on as bounds.

Data on one compound can be found in US10597364B2, “Anthelmintic compounds, compositions and method of using thereof” (priority 2015, dated 2020).

The test system of data set [1] is Trichostrongylus colubriformis. The data set can be described thus: Method F: Trichostrongylus colubriformis in vivo in Mongolian jirds. To be noted: oral gavage, 5 mg/kg, necropsy 3 days after treatment. The protocol: (§1) Method to test activity of compounds against Trichostrongylus colubriformis in vivo in Mongolian jirds (Meriones unguiculatus). Mongolian jirds, at least five weeks old, that have been immunosuppressed were artificially infected with ensheathed Trichostrongylus colubriformis third instar larvae. Six days after infection, the jirds were treated by oral gavage with the test compounds, dissolved in a mixture of DMSO/corn oil, at doses of 30 mg/kg. Jirds treated only with the placebo (DMSO/corn oil carrier) served as controls. On day 9 (3 days after treatment) the jirds were euthanized and necropsied for recovery of parasites from the stomach. Efficacy was calculated as the average % reduction in the number of worms in each test group compared with the average number of worms from the control group. Compound 6 provided a 99% reduction in nematode infestation in Mongolian jirds treated by oral gavage with the test article at a dose of 5 mg/kg.

In data set [2] the test system is Haemonchus contortus. The data set can be described thus: Method A: Haemonchus contortus L1 larval development/motility screen in microtitre plate. Type of data set: cell-based. To be noted: 96 h, read-out: motility inhibition.
Data set [3] deals with Haemonchus contortus. The data set can be described thus: Method E: Haemonchus contortus in vivo in Mongolian jirds. The note with it: oral gavage, 5 mg/kg, necropsy 3 days after treatment. The protocol:
Method to test activity of compounds against Haemonchus contortus in vivo in Mongolian jirds (Meriones unguiculatus).
as §1, with “Mongolian” for “Method to test activity of compounds against Trichostrongylus colubriformis in vivo in Mongolian jirds (Meriones unguiculatus). Mongolian”, “Haemonchus contortus” for “Trichostrongylus colubriformis”, “5” for “30”, “100%” for “99%”

For data set [4] the following is noted: human, Caco-2, pH 6.5.
Procedure: Permeability of Compounds.
An in vitro model utilizing Caco-2/TC7 cells is employed to assess the permeability characteristics of new chemical entities (NCEs).
The permeability studies were performed under standard conditions in the apical to basolateral (A→B) direction with a pH gradient and a BSA gradient (standard apical medium (0.5% BSA at pH 6.5)/standard basal medium (5% BSA at pH 7.4)); conditions that most closely reflect the conditions in the in vivo situation. Samples were deproteinized by the addition of 400 μl acetonitrile to 200 μl sample, followed by a 20-minute centrifugation at 1730 g. Compound solubilisation: compound solutions at final concentrations of 20 μM were prepared following dilutions of stock solutions (starting from 10 mM in DMSO) in HBSS. Final concentration of DMSO was adjusted to 1%. Analytical conditions: Supernatants recovered following centrifugation were analysed by LC/MS/MS using a reverse phase column and the mobile phases delivered at 0.3 ml/minute in a gradient: water (A) and acetonitrile (B) (each with 0.1% formic acid).
Every experiment (n) represents the mean of 3 filters per experiment.

In the case of `N#Cc1ccc(NC2CCC(Oc3cncc(N4CCN(c5ccc(C(F)(F)F)cn5)CC4)c3)CC2)cc1C(F)(F)F` (stereo not shown) [Compound 6, 4-[[4-[(5-[4-[5-(trifluoromethyl)pyridin-2-yl]piperazin-1-yl]pyridin-3-yl)oxy]cyclohexyl]amino]-2-(trifluoromethyl)benzonitrile], the entries for the “reduction in nematode infestation” value in data set [1] and in data set [3] were 99% and 100%, respectively. Besides, the inhibition at 5 µM in data set [2] is not below 90%. Also, the Papp A→B at 20 μM in data set [4] turned out to be 0.64 ×10⁻⁶ cm/s.
